Like-named read-outs stand apart in the source and are kept apart here. Each block holds one compound with its values, some of them ahead of it.
Columns and labels:
[1] = Transdermal penetration of indomethacin from ointment across shed snake skin (vertical diffusion cell); assay type: in vitro ADME, black rat snake (Elahe obsoleta)
Method: Ointments were prepared by mixing 100 mg (1%) indomethancin, 500 mg (5%) penetration enhancer and 9400 mg (94%) petrolatum at 55°-60°C. to give a homogenous dispersion of indomethacin. In each transport study, 30 mg of ointment containing […] of indomethacin was applied.
(§1) A whole shed snake skin from the molt of adult Elahe obsoleta (black rat snake) was obtained from the Animal Care Unit of the University of Kansas. Only the dorsal side of the shed snake skin was used for in vitro penetration studies. The head and tail sections of the snake skin was removed and the remainder of the skin was cut randomly into sections of approximately 2 inches by 2 inches. Each piece of snake skin was hydrated overnight by first soaking the skin in water (about 5 to 10 minutes) until it could be stretched and then placing it on a plastic pan which held some water. The pan was floated on a water-bath at 32° C. overnight.
For the transport studies using ointments, approximately 30 mg of ointment prepared as described in Example 5 was smeared evenly on an area of the 2"×2" snake skin. The ointment was smeared into an essentially circular area approximately 1.77 cm^2 and having a diameter of approximately 15 mm. The snake skin was then mounted on top of the receptor cell of a vertical diffusion cell assembly in which a small magnetic bar was inserted and filled with an isotonic buffer. A rubber o-ring was placed on top of the skin followed by the placement of the donor cell. The two cells were clamped together and transferred to a water-bath (32° C.) which had several magnetic stirrers placed underneath to stir the contents of the diffusion cells. Samples from the cells were withdrawn periodically by gravity by inputting fresh isotonic buffer into the cell inlets. The first five drops were discarded and the following […] drops were collected for analysis. These nine drops of sample solution were approximately equivalent to about 0.20 ml.
The samples were analyzed for the concentration of indomethacin using a Perkin-Elmer ISS-100 HPLC apparatus with a Perkin-Elmer LC90 UV spectrophotometric detector and a Perkin-Elmer ISS-100 automatic sampler with the detection wavelength set at 260 nm. The peak heights of the chromatograms were recorded on a Perkin-Elmer LCI-100 Laboratory Computing Integrator. A reverse phase column, RP-8 Spheri-5, 4.6×100 mm and a guard column OD-GU, purchased from Brownlee Labs, were used in conjunction with the HPLC system. The flow rate was 1.0 ml/min and the solvent system was a mixture of acetonitrile (50%) and a 0.01 M phosphate buffer (pH 3.0) (50%).
The concentration in each sample was interpreted from a standard curve which was obtained by plotting the peak areas obtained from HPL chromatograms versus four different standard solutions of indomethacin. The standard curves were linear over a range of concentrations from 2.5 to 10 µg/ml. The receptor cell volume was calibrated by weighing the amount of water in the cell. The first sample needs no concentration correction. However, the concentration in the subsequent samples can be corrected by the following equation: [formula] where Xi is number of microgram of indomethacin in the i^th sample. Yi is the concentration correction for i-l sample. The volume withdrawn for each sampling is about 0.20 ml.
(§2) Statistical analyses were performed using the Student's t-test.
Relative penetration enhancements (%) were calculated by [formula]
Azone was selected as the for comparison since it is claimed to excellent enhancer although it is too toxic; was assigned a value of 100% enhancement.
Penetration that was equal the penetration of Azone was reported as 100% rela penetration. All of the relative enhancements in Table 3 are based on the early stage or hours o penetration studies.
At least 3 or 4 cells were used for each enhancer and mean val (μg) of indomethacin in the receptor cells are plotted versus time in hours.

[2] = assay type: in vitro ADME, black rat snake (Elahe obsoleta)
Method: Patches were prepared by first dissolving 300 mg indomethacin, 400 mg penetration enhancer, 300 mg polyethylene glycol 400 and 800 mg hydroxypropyl cellulose in 20 ml of ethanol. That viscous solution was spread on a backing layer, which was a film of ethoxycellulose, with 0.9 mm of thickness. After drying at 40° C. for one hour, two layer film patches were obtained. Circles with a diameter of 12 mm were used for the transport studies.
as §1, §2

[3] = intraperitoneal administration; cited from earlier work
[4] = indomethacin ointment, 5% enhancer, relative to Azone = 100%, early stage of penetration studies, 32° C.

Relative Enhancement [1]: 200%
speed of effect compared with Azone [1]: faster than that of Azone
transport of indomethacin compared with that accelerated by Azone [1]: twice
steady state flux for indomethacin [2]: 3.84 ± 0.57 µg/h
steady state flux ratio versus dodecyl alcohol [2]: 2.5 times
time to reach steady state flux of indomethacin [2]: about 2 hours
SMILES: CCCCCCCCCCCCOC(=O)CN(C)C [Compound No. 2, dodecyl (N,N-dimethylamino)acetate]

Relative Enhancement [1]: 250%
SMILES: CCCCCCCCOC(=O)CN(C)C [Compound No. 4, octyl (N,N-dimethylamino)acetate]

SMILES: CCCCCCCCCCCCCCOC(=O)CN(C)C [Compound No. 1, tetradecyl (N,N-dimethylamino)acetate]
Relative Enhancement [1, 4]: 100%

SMILES: CCCCCCCCCCOC(=O)CN(C)C [compound 3, decyl (N,N-dimethylamino)acetate]
Relative Enhancement [1, 4]: 380%

SMILES: CCCCCCCCCCCCOC(=O)CN(CC)CC [Compound No. 5, dodecyl (N,N-diethylamino)acetate]
Relative Enhancement [1, 4]: 70%

SMILES: CCCCCCCCCCOC(=O)CN1CCN(C)CC1 [Compound No. 6, Decyl (4-methyl-1-piperazinyl)acetate]
Relative Enhancement [1, 4]: 40%

SMILES: CCCCCCCCCCCCN1CCCCCC1=O [Azone, 1-Dodecylazacycloheptane-2-One, reference compound]
Relative Enhancement [1]: 100%
indomethacin detected in receptor cells ([1]; ointment, early stage of less than 12 hours): only a few
LD50 [3]: approximately 232 mg/kg

steady state flux for indomethacin [2]: 1.49 ± 0.21 µg/h
time to reach steady state flux of indomethacin [2]: about 5 hours
SMILES: CCCCCCCCCCCCO [dodecyl alcohol, reference compound]

From patent US4980378A, “Biodegradable absorption enhancers” (priority 1988, dated 1990)
